PMC11423509, “Structural basis of Pseudomonas aeruginosa penicillin binding protein 3 inhibition by the siderophore-antibiotic cefiderocol” (Chemical Science, 2024)
Read-outs that look alike come from different tables or passages of the source.

Key:
P. aeruginosa PBP3 [1] = target: T1, P. aeruginosa PBP3 (Pseudomonas aeruginosa, UniProt G3XD46); test: biochemical; details: 300 nM PBP3, 1.5 mM S2d, 0.5 mM mBBr; 10 min pre-incubation at 30 °C; mean ± standard error of three independent experiments; read-out: pIC50 (S2d, n = 3) (converted)
T1 construct: A gene encoding ftsI (PBP3, residues 50–579) from P. aeruginosa PAO1; made in house; host or cells: E. coli BL21(DE3)
Text: (§1) PBP3 transpeptidases are proposed to be key targets for the cephalosporins and most other β-lactam antibiotics.[13] […] In one method, the thioester substrate analogue S2d is hydrolysed by PBP3 (ESI Scheme S1 ^†) releasing D-alanine and a free thiol.[15,16] The latter reacts with monobromobimane (mBBr), a fluorescent dye, enabling measurement of the turnover rate and determination of pIC50 values.
A positive control without inhibitor and a negative control lacking both enzyme and inhibitor were prepared. […]
(§2) independent repeats are shown. Error bars represent standard deviations from three technical replicates measured simultaneously. Average pIC50 values and inhibitor structures are provided […]
(§3) (1 picture or pasted object on this page, not shown here)

P. aeruginosa PBP3 [2] = target: T1, P. aeruginosa PBP3; test: biochemical; format: binding; details: 311 nM PBP3, 30 nM Bocillin-FL; 10 min pre-incubation at 30 °C; mean ± standard error of three independent experiments; read-out: pIC50 (bocillin, n = 3) (converted)
Text: as §1
A positive control without inhibitor and a negative control lacking both enzyme and inhibitor were prepared. In both cases the inhibitor/enzyme solution was replaced with an equal volume of buffer. Following incubation of the inhibitor with PBP3, Bocillin-FL (30 nM) was dispensed to initiate the reaction. Following a further incubation (10 min, 30 °C, 300 rpm) the fluorescence polarisation was measured using a BMG PHERAstar Microplate Reader (λEx/λEm = 480/520 nm) using black 384-well microplates (Greiner). The percentage inhibition of Bocillin-FL binding was calculated for each compound concentration by normalising with control wells. These measurements were used to calculate relative pIC50 values using the log([inhibitor]) against normalised response, fit, using GraphPad Prism version 10.2 (ESI Fig. S7 ^†).
Figure S7: Dose response curves for (A) cefiderocol, (B) ceftazidime, (C) cefepime and […]
assays were carried out with 311 nM PBP3 and 30 nM Bocillin-FL, with 10 minute pre-incubation with inhibitor compounds in 50 mM potassium phosphate, pH 7.4. […]
as §2, §3

P. aeruginosa PBP3 [3] = target: T1, P. aeruginosa PBP3; test: Meropenem competition binding experiment, PBP3-observed mass spectrometry; details: 1 : 1 mixture of cephalosporin and meropenem (1 mM of each), 100 μM PBP3, 10 minutes co-incubation, quenched with formic acid
Method: To further probe the relative rates of reaction of the four β-lactams with PBP3, a competitive binding experiment employing PBP3-observed mass spectrometry (MS) was developed. […] Following 10 minutes co-incubation with PBP3, the reactions were quenched with formic acid and analysed by protein-observed MS (under denaturing conditions) (Fig. 1).
The spectra shown are representative of three technical repeats.
Samples were then diluted in LC-MS-grade water (15 μM final concentration) and analysed using a Waters XeVo G2-S mass spectrometer coupled to a Waters Acquity-UPLC. 5 μL samples were injected onto a ThermoFisher Scientific ProSwift RP-4H (1 mm × 50 mm) column pre-equilibrated in 95%v/v water, 5%v/v MeCN. The column was eluted with a linear gradient from 5 to 95v/v% MeCN in water over ten minutes. All solvents contained 0.1%v/v formic acid. Data were analysed using MassLynx Version 4.1. The mass spectra obtained were deconvoluted using the MaxEnt1 algorithm.

PBP3 = system: PBP3; parameters: method as in earlier work; details: Bocillin-FL assay under different conditions; ref 20 (Shapiro et al.); cited from earlier work

T1 sequence (G3XD46 50-579): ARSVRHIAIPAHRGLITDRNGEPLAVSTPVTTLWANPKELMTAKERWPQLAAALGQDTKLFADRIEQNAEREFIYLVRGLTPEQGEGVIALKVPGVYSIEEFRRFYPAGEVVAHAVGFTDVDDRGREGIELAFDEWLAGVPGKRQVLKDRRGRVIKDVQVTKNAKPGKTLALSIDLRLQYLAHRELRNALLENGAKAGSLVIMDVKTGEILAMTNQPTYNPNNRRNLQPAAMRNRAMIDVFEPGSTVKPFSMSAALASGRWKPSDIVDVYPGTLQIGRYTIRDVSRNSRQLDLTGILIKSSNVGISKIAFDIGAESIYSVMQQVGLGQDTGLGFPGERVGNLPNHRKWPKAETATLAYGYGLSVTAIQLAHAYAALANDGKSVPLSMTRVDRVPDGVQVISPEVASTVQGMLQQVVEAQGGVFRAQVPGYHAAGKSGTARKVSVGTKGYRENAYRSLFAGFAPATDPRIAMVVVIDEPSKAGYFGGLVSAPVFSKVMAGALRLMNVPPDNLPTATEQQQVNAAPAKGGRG

Compound | IC50 (P. aeruginosa PBP3 [1]) [nM] | IC50 (P. aeruginosa PBP3 [2]) [nM] | PBP3 complex formed in competition with meropenem (protein-observed MS) (P. aeruginosa PBP3 [3]) | PBP3 inhibition relative to meropenem (PBP3)
CO/N=C(\C(=O)N[C@@H]1C(=O)N2C(C(=O)[O-])=C(C[N+]3(C)CCCC3)CS[C@H]12)c1csc(N)n1 [Cefepime, cefepime] | 39.8 | 100 | ∼1 : 1 mixture of cefepime and meropenem modified PBP | 
CC(C)(O/N=C(\C(=O)N[C@@H]1C(=O)N2C(C(=O)[O-])=C(C[N+]3(CCNC(=O)c4ccc(O)c(O)c4Cl)CCCC3)CS[C@H]12)c1csc(N)n1)C(=O)O [Cefiderocol, cefiderocol] | 50.1 | 100 | a small amount of cefiderocol modified PBP3 was observed | 
CC(C)(O/N=C(\C(=O)N[C@@H]1C(=O)N2C(C(=O)[O-])=C(C[n+]3ccccc3)CS[C@H]12)c1csc(N)n1)C(=O)O [Ceftazidime, ceftazidime] | 79.4 | 251 | exclusively meropenem-modified PBP3 | more inhibition with ceftazidime than meropenem
